Source: patent US20070141618A1, “GENES EXPRESSED IN BREAST CANCER AS PROGNOSTIC AND THERAPEUTIC TARGETS” (priority 2001, published 2007)

Assays:
TFF1 = settings: reportedly; Prud'homme et al. 1985; cited from earlier work
[1] = test system: primary invasive breast cancer; experiment: Clinical tumor response (WHO criteria) in randomized Phase III neoadjuvant trial of letrozole versus tamoxifen; type: in vivo, human (postmenopausal women); settings: clinical outcome of patients with profiled biopsies; clinical assessment by palpation at 4 months
Description: Definitions of Objective Response Used in the Letrozole (FEMARA™) vs. Tamoxifen Comparison Study
1. Complete Response (CR): The disappearance of all known disease, determined by 2 observations not less than 4 weeks apart.
2. Partial Response (PR): A 50% or more decrease in total tumor size of the lesions which have been measured to determine the effect of therapy by 2 observations not less than 4 weeks apart. In addition there can be no appearance of new lesions or progression of any lesion.
4. Progressive Disease (PD): A 25% or more increase in the size of one or more measurable lesions, or the appearance of new lesions.
Clinical Response Assessment
The primary efficacy variable was tumor response, assessed by clinical examination using World Health Organization (WHO) criteria (see, WHO Handbook for Reporting Results of Cancer Treatment). It was defined as the percentage of patients in each treatment group with a CR or PR as determined clinically in the breast by palpation at 4 months. Possible responses were CR, PR, NC, PD or not assessable/not evaluable (NA/NE). Palpable ipsilateral axillary lymph nodal involvement downgraded a clinical CR in tumor. Other factors were also considered such the percentage of patients who underwent breast-conserving surgery (quadrantectomy/lumpectomy) instead of mastectomy. Patients who became inoperable, or who remained inoperable at 4 months, were counted as treatment failures.
Twenty-one RNA samples were extracted from 14-gauge needle core biopsies collected before initiation of neoadjuvant endocrine therapy from patients enrolled in a randomized Phase III trial of letrozole (FEMARA™, Novartis Pharma, Basal Switzerland) versus tamoxifen for postmenopausal women with primary invasive breast cancer ineligible for breast conserving surgery. RNA was extracted from an additional 30 primary breast adenocarcinomas collected in Sweden, one additional ESR1+breast tumor surgical biopsy, two HUVEC samples, two samples from glioblastoma cell line U373-MG and one MCF7 sample using Trizol (Life Technologies, Gaithersburg, Md.). The clinical samples were collected after informed consent had been obtained according to protocols approved by local ethics committees. RNA was purchased for two samples, an infiltrating Stage III duct carcinoma (Ambion, Austin, Tex.) and a pool of two normal breast tissues (Clontech, Palo Alto, Calif.). The total number of samples prepared was 59 including 53 breast cancer biopsies and one pooled normal breast sample. Total RNA was purified using QIAGEN RNEASY™ columns (Qiagen, Valencia, Calif.), processed and hybridized to the HUGENE™ FL 6800 Array (Affymetrix, Santa Clara, Calif.), as described by Lockhart et al., Nat. Biotechnol., Vol. 14, pp. 1675-1680 (1996).
In another aspect of the invention 136 breast biopsies from 53 patients were obtained. RNA was extracted from 116 biopsies. Expression profiles were generated for 43 biopsies from 35 patients. Predictive markers of endocrine therapy responsiveness in breast tumors were identified. The breakdown of the profiled biopsies from the pre-letrozole (FEMARA™) treatments and the patient's clinical outcome was as follows: four patients with CR, nine patients with PR, four patients with NC and four patients with PD.
For the group treated with tamoxifen there were no patients in the CR category, 10 patients with PR, seven patients with NC and four patients with PD.
Patients with CR or PR were classified as “Responders” and those with NC or PD were classified as “Non-responders”. The expression of 8,000 genes was compared between these two groups in the pre-treatment biopsies from patients given Letrozole (FEMARA™). Numerical values (AvDiff) represent the expression level for that gene in a particular sample. For computational reasons the average of the AvDiff values was calculated for each gene on the array for all of the responders. These averages were then compared to each gene for each individual sample in the Non-responders group. […]

[2] = test system: advanced ER-positive breast cancer; settings: patients with advanced ER-positive breast cancer; Clark et al. 1988; cited from earlier work

CC(=O)[C@H]1CC[C@H]2[C@@H]3CCC4=CC(=O)CC[C@]4(C)[C@H]3CC[C@]12C [progesterone]
effect on TFF1 mRNA levels (TFF1): not

C[C@]12CCC(=O)C[C@@H]1CC[C@@H]1[C@@H]2CC[C@]2(C)[C@@H](O)CC[C@@H]12 [dihydrotestosterone]
effect on TFF1 mRNA levels (TFF1): not

N#Cc1ccc(C(c2ccc(C#N)cc2)n2cncn2)cc1 [letrozole]
patients with Complete Response (CR) [1]: four | patients with No Change (NC) [1]: four | patients with Partial Response (PR) [1]: nine | patients with Progressive Disease (PD) [1]: four

CC/C(=C(\c1ccccc1)c1ccc(OCCN(C)C)cc1)c1ccccc1 [tamoxifen]
effect on estradiol induction of TFF1 (TFF1): inhibited | response rate [2]: around 50% | patients with Complete Response (CR) [1]: no | patients with No Change (NC) [1]: seven | patients with Partial Response (PR) [1]: 10 patients | patients with Progressive Disease (PD) [1]: four
